From patent US20240033237A1, “USE OF A-KETOGLUTARATE IN MANUFACTURE OF MEDICAMENT” (TONGJI UNIVERSITY, priority 2019, published 2024) come the findings set out here.

Experiment [1] relates to chondrocytes. The experiment in a line: Catabolic phenotype of IL-1β-stimulated mouse chondrocytes (whole-genome sequencing, q-PCR, western blot). In kind it is cell-based. As to the method: (§1) Mouse chondrocytes were obtained from 7-day-old C57BL/6 mice (Shanghai Slac laboratory animal Co., Ltd.), and the procedure was as follows: under aseptic surgical conditions, bilateral knee cartilages of C57 mice were carefully stripped and digested with 0.2% neutral collagenase (Serva, Germany) for 8 h; cell precipitates were obtained by centrifugation, and the cells were resuspended in modified Eagle medium (DMEM) (Gibco, USA) containing 10% FBS, inoculated in culture dishes, and cultured with high-sugar DMEM medium (containing 10% FBS, 100 U/mL penicillin and 100 mg/L streptomycin) at 37° C. in a 5% CO2 constant temperature incubator. The medium was changed for the first time at 48 h. […] The cells were collected by centrifugation and resuspended, and the concentration was adjusted for inoculation in culture dishes. The cells were subcultured by the above method, and the obtained cells were labeled as P1, P2, P3 generations, etc.
(2) Real-Time Fluorescent Quantitative PCR (Real Time q-PCR) Analysis • 1) The P1 generation mouse chondrocytes cultured in Embodiment 1 were used, the culture medium was sucked out from the culture dish, and the cells were washed once with PBS. • 2) Extraction of total RNA • 1. chloroform (⅕ volume of RNAiso Plus) was added to the homogenate lysate, the cover of the centrifuge tube was closed tightly, and the centrifuge tube was shaken violently by hand for 15 seconds. After the solution is fully emulsified (without phase separation phenomenon), the centrifuge tube was allowed to stand at room temperature for 5 minutes. • 2. the centrifuge tube was centrifuged at 12000 g under 4° C. for 5 minutes. • 3. the centrifuge tube was carefully taken out from the centrifugal machine, at this time the homogenate was divided into three layers: a colorless supernatant, a white protein layer in the middle, and a lower organic phase with color. […] Precipitate usually occurs at the bottom of a test tube after centrifugation.
On ice, SYBR Premix Ex Taq, upstream and downstream primers of catabolic and synthetic genes of chondrocytes, ROX Reference Dye, cDNA template and dH2O were added into a test tube. After being mixed evenly, the mixture was evenly divided into PCR tubes. The PCR tubes were placed in a Q-PCR instrument to detect the product.
P1 generation mouse chondrocytes cultured in Embodiment 1 were subjected to western blot analysis through operations including the following: • 1. Collecting of protein samples: The culture medium was sucked out, and the cells were washed twice with PBS at 4° C. and then dried. 100 μl of cell lysate was added to each well, the cells were lysed on ice for 10 min, and collected into a 1.5 ml centrifuge tube. […] The protein concentration was determined by the BCA Protein Quantification Kit. […]

Experiment [2] concerns articular cartilage. Nature of the experiment: Mouse model of knee osteoarthritis (DMM), intra-articular injection, Safranin-O/fast green staining and OARSI score. In kind it is in vivo, C57BL/6 mice. The settings on record: 8 weeks after DMM surgery, once a week, 5 times. The text has this:
Male C57BL/6 mice (n=30) were purchased from Shanghai Slac laboratory animal Co., Ltd. and reared to 8 weeks of age. The animal experimental operation method was reviewed and approved by the Ethics Committee of Tongji University School of Medicine. Male C57BL/6 mice reared to 8 weeks of age were anaesthetized, and a longitudinal incision was made in the medial side of the knee joint. The articular cavity was opened along the medial side of the patellar ligament, the fat pad in the intercondylar area was bluntly separated, and the meniscus tibial ligament connecting the medial meniscus was found and transected. The incision was closed after hemostasis by compression, and the mice were continued to be fed. The mice were anesthetized and sacrificed at 4, 8 and 12 weeks after surgery (n=8 for each group), and the knee joints were isolated for histological examination, forming the treatment group. Male C57BL/6 mice reared to 8 weeks of age were anaesthetized, and a longitudinal incision was made in the medial side of the knee joint. […] The damage degree of articular cartilage was observed by Safranin-O/ fast green staining and quantitatively evaluated by OARSI score. […]

Experiment [3] deals with chondrocytes. Nature of the experiment: Synthetic phenotype of IL-1β-stimulated mouse chondrocytes (whole-genome sequencing, q-PCR, western blot). In kind it is cell-based. How it is done:
as §1
(2) Real-Time Fluorescent Quantitative PCR (Real Time q-PCR) Analysis • 1) The P1 generation mouse chondrocytes cultured in Embodiment 1 were used, the culture medium was sucked out from the culture dish, and the cells were washed once with PBS. • 2) Extraction of total RNA • 1. chloroform (⅕ volume of RNAiso Plus) was added to the homogenate lysate, the cover of the centrifuge tube was closed tightly, and the centrifuge tube was shaken violently by hand for 15 seconds. […]
P1 generation mouse chondrocytes cultured in Embodiment 1 were subjected to western blot analysis through operations including the following: • 1. […] The protein concentration was determined by the BCA Protein Quantification Kit. […]
(A western blot detects proteins with antibodies after separation by electrophoresis.)

Consider `COC(=O)CCC(=O)C(=O)OC` [α-KG, dimethyl-α-ketoglutarate], for which, in experiment [1] (q-PCR and western blot, 6 h, 12 h, 24 h, 36 h, 10 ng/ml IL-1β + 7 mM α-KG), the “gene and protein expressions of catabolic phenotypic genes MMP3, MMP13, ADAMTS5, NOS2 at different time periods” value was “could inhibit the gene and protein expressions”. In experiment [1] (q-PCR, 24 h, 10 ng/ml IL-1β + 7 mM α-KG), the “expression of cartilage catabolic phenotypic genes MMP3, MMP13, ADAMTS5, NOS2” value is listed as “inhibit the expression”. Also, the “protein expression of cartilage catabolic phenotypic genes MMP3, MMP13, ADAMTS5, NOS2” value in experiment [1] (western blot, 24 h, 10 ng/ml IL-1β + 7 mM α-KG) is listed as “inhibited the protein expression”. Further, the “expressions of catabolic phenotypes (metalloproteases MMP2, MMP3, MMP8, MMP9, MMP12, MMP13, MMP27; aggrecanases ADAMTS5, 7, 12, 15, 16, 17; NOS2) of chondrocytes” value in experiment [1] (whole-genome sequencing, 10 ng/ml IL-1β + 7 mM α-KG vs IL-1β group) was “suppressed”. Further, the “OARSI score, damage degree of articular cartilage” value in experiment [2] is recorded as “significantly inhibit the progression of osteoarthritis”. For the same compound, the “cartilage damage / progression of osteoarthritis (Safranin O/fast green histology)” value in experiment [2] (DMM+αKG group vs DMM group) was “no significant cartilage damage”. In experiment [3] (q-PCR, 10 ng/ml IL-1β + 7 mM α-KG), the “expressions of chondrocyte synthetic genes SOX9, COL2A1, ACAN” value was “promote the expressions”. In experiment [3] (western blot, 6 h, 12 h, 24 h, 36 h, 10 ng/ml IL-1β + 7 mM α-KG), the “protein expressions of chondrocyte synthetic genes SOX9 and COL2A” value was “promote the protein expressions”. The “expressions of synthetic phenotypic genes (SOX9, COL2A1, ACAN, COL9A1, COL9A2, COL9A3, COL11A1, COL11A2) of chondrocytes” value in experiment [3] (whole-genome sequencing, 24 h, 10 ng/ml IL-1β + 7 mM α-KG vs IL-1β group) is listed as “increased”.
